According to patent US20090054394A1, “POLYMORPHISMS IN MGST3 ARE ASSOCIATED WITH ELEVATED ALAT LEVELS AFTER XIMELAGATRAN TREATMENT” (priority 2005, published 2009):

Test system: alanine aminotransferase (ALAT) levels
Assay: Clinical trials, longer-term ximelagatran treatment: alanine aminotransferase (ALAT) elevation
Format: in vivo, human
Text: Phase III clinical trials have been performed using fixed doses of melagatran and ximelagatran for the prevention of VTE in hip or knee replacement surgery. In addition, clinical trials have been performed using ximelagatran for the treatment and long-term secondary prevention of VTE, and for the prevention of stroke in patients with non-valvular atrial fibrillation. Ximelagatran has also been tested for secondary thrombosis prophylaxis post-myocardial infarction/acute coronary syndrome (ACS).
Alanine aminotransferrase (ALAT) is an enzyme mostly expressed in the liver (EC 2.6.1.2). It is also called serum glutamate pyruvate transaminase (SGPT) or alanine transaminase (ALT). This enzyme is release into the plasma by liver cell death, which is a normal event. However, when liver cell death increases, ALAT levels rise above the normal range. The spill-over of this enzyme into blood is routinely measured as a marker of abnormal liver-cell damage. For example, alcoholic or viral hepatitis will increase ALAT levels, as will severe congestive heart failure. ALAT is also markedly raised in hepatitis and other acute liver damage. An elevated ALAT in the presence of normal levels of plasma alkaline phosphatase helps distinguish liver disease caused by liver-cell damage from diseases caused by problems in biliary ducts. Elevations of ALAT are normally measured in multiples of the upper limit of normal (ULN), with a reference range of 15-45 U/L in most laboratories. In 1987, in a study of 19,877 healthy Air Force recruits, only 99 (0.5%) had confirmed ALAT elevations (as reviewed in Green & Flamm (2002) Gastroenterology 123:1367-1384).
The increase in ALAT values with ximelagatran, usually occurred within the first 6 months of treatment and were mainly asymptomatic. […] Subject to the future regulatory approval of ximelagatran, regular liver function testing (LFT) using an appropriate algorithm may be required if ximelagatran is used for treatment periods exceeding a month. […]

Compound: CCOC(=O)CN[C@@H](C(=O)N1CC[C@H]1C(=O)NCc1ccc(/C(N)=N\O)cc1)C1CCCCC1 [ximelagatran, EtOOC—CH2—(R)Cgl-Aze-Pab-OH]
- patients exhibiting ALAT 3-fold or more above the upper limit of normal (≧3×ULN) (longer-term treatment (>35 days), 1.2% in the comparator groups): 7.9%
- reversibility of the increases in ALAT (regardless of whether treatment was continued or discontinued): reversible in most patients
- time of occurrence of the increase in ALAT values (usually, time from start of treatment): ≤ 6 months
